Like-named read-outs stand apart in the source and are kept apart here.
Biological target: CFTR-mediated chloride transport in human intestinal epithelial enteroid cells (Homo sapiens, UniProt P13569)
Test: Membrane potential dye, Enteroid Assay A
Assay type: cell-based
Conditions: for EC50: read-out: Ent. A EC50
Summary of the method: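 Membrane potential dye (20 μM methyl oxonol, with 30 μM CaCCinh-A01 and 30 μM Chicago Sky Blue) loaded 25 min at room temperature into ROCK-inhibitor-seeded human enteroid cells. Chloride-free stimulation buffer triggered transport, followed by 15 min fluorescence. % Activity relative to 3 μM/3 μM/300 nM triple-combination control.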

[1] = enteroid cells incubated with test compound 18-24 hours, acute 10 μM forskolin and 300 nM N-[2,4-bis(1,1-dimethylethyl)-5-hydroxyphenyl]-1,4-dihydro-4-oxoquinoline-3-carboxamide
[2] = percentage of chloride transport of triple combination control (3 μM N-[(6-amino-2-pyridyl)sulfonyl]-6-(3-fluoro-5-isobutoxy-phenyl)-2-[(4S)-2,2,4-trimethylpyrrolidin-1-yl]pyridine-3-carboxamide based)

Sequence of CFTR-mediated chloride transport in human intestinal epithelial enteroid cells (P13569 with tags, fused parts or gaps DEL508-508): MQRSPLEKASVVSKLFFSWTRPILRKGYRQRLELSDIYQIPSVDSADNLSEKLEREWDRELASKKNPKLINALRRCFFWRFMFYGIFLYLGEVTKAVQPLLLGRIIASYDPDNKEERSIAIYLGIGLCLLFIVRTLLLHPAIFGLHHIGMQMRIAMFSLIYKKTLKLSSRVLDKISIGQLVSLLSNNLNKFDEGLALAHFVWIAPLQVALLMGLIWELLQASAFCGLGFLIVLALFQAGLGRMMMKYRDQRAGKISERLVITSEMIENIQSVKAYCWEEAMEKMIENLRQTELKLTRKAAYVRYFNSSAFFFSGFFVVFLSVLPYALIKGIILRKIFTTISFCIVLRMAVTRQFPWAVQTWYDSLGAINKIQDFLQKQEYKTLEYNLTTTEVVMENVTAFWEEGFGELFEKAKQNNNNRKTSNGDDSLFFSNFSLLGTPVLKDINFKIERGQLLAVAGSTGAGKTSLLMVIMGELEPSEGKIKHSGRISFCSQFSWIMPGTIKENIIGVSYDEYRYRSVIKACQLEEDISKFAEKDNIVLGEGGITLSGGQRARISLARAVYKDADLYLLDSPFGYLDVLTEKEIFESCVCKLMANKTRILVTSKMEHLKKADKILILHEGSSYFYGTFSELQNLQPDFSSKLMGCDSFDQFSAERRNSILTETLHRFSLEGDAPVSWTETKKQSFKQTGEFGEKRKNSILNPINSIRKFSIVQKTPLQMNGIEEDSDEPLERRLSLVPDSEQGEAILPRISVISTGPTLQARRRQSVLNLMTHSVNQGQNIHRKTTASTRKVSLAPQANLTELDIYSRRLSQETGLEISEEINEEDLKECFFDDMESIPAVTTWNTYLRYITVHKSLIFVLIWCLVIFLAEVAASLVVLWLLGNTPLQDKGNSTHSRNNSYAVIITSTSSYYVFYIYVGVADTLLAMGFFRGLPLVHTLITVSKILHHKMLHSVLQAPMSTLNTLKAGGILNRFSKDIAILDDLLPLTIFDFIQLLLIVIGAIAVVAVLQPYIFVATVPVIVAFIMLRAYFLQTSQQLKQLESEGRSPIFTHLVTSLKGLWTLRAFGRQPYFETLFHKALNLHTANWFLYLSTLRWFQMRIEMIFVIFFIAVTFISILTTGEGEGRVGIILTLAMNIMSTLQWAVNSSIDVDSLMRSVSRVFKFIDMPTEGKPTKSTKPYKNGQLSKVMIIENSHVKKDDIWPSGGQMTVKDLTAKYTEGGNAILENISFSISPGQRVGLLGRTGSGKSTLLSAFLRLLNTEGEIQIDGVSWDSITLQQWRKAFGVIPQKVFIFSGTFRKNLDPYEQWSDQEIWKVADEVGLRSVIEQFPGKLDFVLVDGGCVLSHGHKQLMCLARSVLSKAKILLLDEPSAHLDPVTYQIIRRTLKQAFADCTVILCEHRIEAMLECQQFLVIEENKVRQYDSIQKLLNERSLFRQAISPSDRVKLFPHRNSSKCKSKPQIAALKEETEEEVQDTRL

SMILES | EC50 [1] | Ent. A Max Activity (%) (Enteroid Assay A) | EC50 (Enteroid Assay A) | Ent. A Max Activity (%) [2]
Cc1cccc(C)c1-c1cc2nc(n1)NS(=O)(=O)c1cccc(c1)C(=O)N1CCN(C(=O)CCN3CCCC3)CC1CO2 (stereo not drawn) [Compound 308] |  |  |  | + (+ is <300%)
Cc1cccc(C)c1-c1cc2nc(n1)NS(=O)(=O)c1cccc(c1)C(=O)N1CCN(C)C(CO2)C1 (stereo not drawn) [Compound 316] |  |  |  | + (+ is <300%)
Cc1cccc(C)c1-c1cc2nc(n1)NS(=O)(=O)c1cccc(c1)C(=O)N1Cc3ccccc3[C@@H](C1)O2 [Compound 318] |  |  |  | + (+ is <300%)
Cc1cccc(C)c1-c1cc2nc(n1)NS(=O)(=O)c1cccc(c1)C(=O)N1CC(NC(=O)OC(C)(C)C)CC(C1)O2 (stereo not drawn) [Compound 320] | 1 to 3 µM |  |  | ++ (++ is 30-60%)
Cc1cccc(C)c1-c1cc2nc(n1)NS(=O)(=O)c1cccc(c1)C(=O)N1CCC[C@@H](C1)O2 [Compound 335] |  |  |  | + (+ is <300%)
Cc1cccc(C)c1-c1cc2nc(n1)NS(=O)(=O)c1cccc(c1)C(=O)N1CCC[C@H](C1)O2 [Compound 336] |  |  |  | + (+ is <300%)
CC(C)Oc1cccc(-c2cc3nc(n2)NS(=O)(=O)c2cccc(c2)C(=O)N2Cc4ccccc4C(C2)O3)c1 (stereo not drawn) [Compound 338] |  |  |  | + (+ is <300%)
Cc1cccc(C)c1-c1cc2nc(n1)NS(=O)(=O)c1cc(n(C)n1)C(=O)N1Cc3ccccc3[C@H](C1)O2 [Compound 340] | 3 to 30 µM |  |  | + (+ is <300%)
Cc1cccc(C)c1-c1cc2nc(n1)NS(=O)(=O)c1cc(n(C)n1)C(=O)N1Cc3ccccc3[C@H](C1)O2 [Compound 341] | 3 to 30 µM |  |  | ++ (++ is 30-60%)
Cc1cccc(C)c1-c1cc2nc(n1)NS(=O)(=O)c1cccc(c1)CN1CC(COCC(C)(C)C)CC(C1)O2 (stereo not drawn) [Compound 344] | < 1 µM |  |  | ++ (++ is 30-60%)
Cc1cccc(C)c1-c1cc2nc(n1)NS(=O)(=O)c1cccc(c1)CCC(=O)N1Cc3ccccc3C(C1)O2 (stereo not drawn) [Compound 345] |  |  |  | + (+ is <300%)
Cc1cccc(C)c1-c1cc2nc(n1)NS(=O)(=O)c1cnn(c1)CCC(=O)N1Cc3ccccc3C(C1)O2 (stereo not drawn) [Compound 346] |  |  |  | + (+ is <300%)
Cc1cccc(C)c1-c1cc2nc(n1)NS(=O)(=O)c1cnn(c1)CC(=O)N1Cc3ccccc3C(C1)O2 (stereo not drawn) [Compound 347] |  |  |  | + (+ is <300%)
Cc1cccc(C)c1-c1cc2nc(n1)NS(=O)(=O)c1cccc(c1)CCC(=O)N1CCC(CC1)O2 [Compound 352] |  |  |  | + (+ is <300%)
Cc1cccc(C)c1-c1cc2nc(n1)NS(=O)(=O)c1cccc(c1)CCC(=O)N1CCCC(C1)O2 (stereo not drawn) [Compound 353] |  |  |  | + (+ is <300%)
Cc1cccc(C)c1-c1cc2nc(n1)NS(=O)(=O)c1cnn(c1)CC(=O)N1CCCC(C1)O2 (stereo not drawn) [Compound 354] |  |  |  | + (+ is <300%)
Cc1cccc(C)c1-c1cc2nc(n1)NS(=O)(=O)c1cncc(c1)C(=O)N1Cc3ccccc3[C@@H](C1)O2 [Compound 360] |  |  |  | + (+ is <300%)
Cc1cccc(C)c1-c1cc2nc(n1)NS(=O)(=O)c1cncc(c1)C(=O)N1Cc3ccccc3[C@H](C1)O2 [Compound 361] |  |  |  | + (+ is <300%)
Cc1cccc(C)c1-c1cc2nc(n1)NS(=O)(=O)c1cccc(c1)C(=O)N1C[C@H]3C[C@@H]1[C@@H](C3)O2 [Compound 364] |  |  |  | ++ (++ is 30-60%)
Cc1cccc(C)c1-c1cc2nc(n1)NS(=O)(=O)c1cccc(c1)C(=O)N1CCCCC(C1)O2 (stereo not drawn) [Compound 369] |  |  |  | + (+ is <300%)

Continued, in another order:

EC50 [1] | Ent. A Max Activity (%) (Enteroid Assay A) | EC50 (Enteroid Assay A) | SMILES | Ent. A Max Activity (%) [2]
3 to 30 µM |  |  | Cc1cccc(C)c1-c1cc2nc(n1)NS(=O)(=O)c1cccc(c1)C(=O)N1CCN(C(=O)CC(C)(C)C)CC1CO2 (stereo not drawn) [Compound 307] | ++ (++ is 30-60%)
< 1 µM |  |  | Cc1cccc(C)c1-c1cc2nc(n1)NS(=O)(=O)c1cccc(c1)C(=O)N1CCN(CC3CCCCC3)CC1CO2 (stereo not drawn) [Compound 309] | ++ (++ is 30-60%)
< 1 µM |  |  | Cc1cccc(C)c1-c1cc2nc(n1)NS(=O)(=O)c1cccc(c1)C(=O)N1CCN(CCC(C)(C)C)CC1CO2 (stereo not drawn) [Compound 310] | ++ (++ is 30-60%)
< 1 µM |  |  | Cc1cccc(C)c1-c1cc2nc(n1)NS(=O)(=O)c1cccc(c1)C(=O)N1CCN(CCc3ccccc3)CC1CO2 (stereo not drawn) [Compound 311] | ++ (++ is 30-60%)
1 to 3 µM |  |  | Cc1cccc(C)c1-c1cc2nc(n1)NS(=O)(=O)c1cccc(c1)C(=O)N1CCN(CC3CCOCC3)CC1CO2 (stereo not drawn) [Compound 312] | ++ (++ is 30-60%)
< 1 µM |  |  | Cc1cccc(C)c1-c1cc2nc(n1)NS(=O)(=O)c1cccc(c1)C(=O)N1CCN(CCCC(C)(C)C)CC1CO2 (stereo not drawn) [Compound 313] | +++ (+++ is >60%)
< 1 µM |  |  | Cc1cccc(C)c1-c1cc2nc(n1)NS(=O)(=O)c1cccc(c1)C(=O)N1CCN(CCC3(C(F)(F)F)CC3)C(CO2)C1 (stereo not drawn) [Compound 314] | +++ (+++ is >60%)
< 1 µM |  |  | Cc1cccc(C)c1-c1cc2nc(n1)NS(=O)(=O)c1cccc(c1)C(=O)N1CCN(C(=O)OC(C)(C)C)C[C@@H]1CO2 [Compound 315] | ++ (++ is 30-60%)
< 1 µM |  |  | Cc1cccc(C)c1-c1cc2nc(n1)NS(=O)(=O)c1cccc(c1)C(=O)N1CCC(c3ccccc3)C(C1)O2 (stereo not drawn) [Compound 317] | +++ (+++ is >60%)
< 1 µM |  |  | Cc1cccc(C)c1-c1cc2nc(n1)NS(=O)(=O)c1cccc(c1)C(=O)N1CC(CC(C(=O)NCCC(C)(C)C)C1)O2 (stereo not drawn) [Compound 321] | ++ (++ is 30-60%)
< 1 µM |  |  | Cc1cccc(C)c1-c1cc2nc(n1)NS(=O)(=O)c1cccc(c1)C(=O)N1CCN(C(=O)OC(C)(C)C)C(CO2)C1 (stereo not drawn) [Compound 322] | ++ (++ is 30-60%)
3 to 30 µM |  |  | Cc1cccc(C)c1-c1cc2nc(n1)NS(=O)(=O)c1cccc(c1)C(=O)N1CC(O2)C(N2CCOCC2)C1 (stereo not drawn) [Compound 323] | ++ (++ is 30-60%)
3 to 30 µM |  |  | Cc1cccc(C)c1-c1cc2nc(n1)NS(=O)(=O)c1cccc(c1)C(=O)N1CCN(C)CC1CO2 (stereo not drawn) [Compound 324] | ++ (++ is 30-60%)
< 1 µM |  |  | Cc1cccc(C)c1-c1cc2nc(n1)NS(=O)(=O)c1cccc(c1)C(=O)N1Cc3ccccc3C(C1)O2 (stereo not drawn) [Compound 325] | +++ (+++ is >60%)
3 to 30 µM |  |  | Cc1cccc(C)c1-c1cc2nc(n1)NS(=O)(=O)c1cccc(c1)C(=O)N1CCCC(C1)O2 (stereo not drawn) [Compound 326] | + (+ is <300%)
1 to 3 µM |  |  | Cc1cccc(C)c1-c1cc2nc(n1)NS(=O)(=O)c1cccc(c1)NC(=O)[C@@H]1CNCCN1c1cccc(c1)O2 [Compound 334] | +++ (+++ is >60%)
< 1 µM |  |  | CC(C)CCc1ccccc1-c1cc2nc(n1)NS(=O)(=O)c1cccc(c1)C(=O)N1Cc3ccccc3C(C1)O2 (stereo not drawn) [Compound 337] | ++ (++ is 30-60%)
1 to 3 µM |  |  | Cc1cccc(C)c1-c1cc2nc(n1)NS(=O)(=O)c1cc(ccn1)C(=O)N1Cc3ccccc3C(C1)O2 (stereo not drawn) [Compound 343] | ++ (++ is 30-60%)
1 to 3 µM |  |  | Cc1cccc(C)c1-c1cc2nc(n1)NS(=O)(=O)c1cc(n(C)c1)CC(=O)N1Cc3ccccc3C(C1)O2 (stereo not drawn) [Compound 348] | ++ (++ is 30-60%)
 | ++ (++ is 30-60%) | 3 to 30 µM | Cc1cccc(C)c1-c1cc2nc(n1)NS(=O)(=O)c1cccc(c1)C(=O)N1CCC(CCCO2)C1 (stereo not drawn) [Compound 355] | 
 | ++ (++ is 30-60%) | 3 to 30 µM | Cc1cccc(C)c1-c1cc2nc(n1)NS(=O)(=O)c1cccc(c1)C(=O)N1CC(CCCO2)CC1(C)C (stereo not drawn) [Compound 356] | 
 | ++ (++ is 30-60%) | < 1 µM | Cc1cccc(C)c1-c1cc2nc(n1)NS(=O)(=O)c1cccc(c1)C(=O)N1CCCN(CCCC3(C(F)(F)F)CC3)CC(C1)O2 (stereo not drawn) [Compound 357] | 
 | ++ (++ is 30-60%) | < 1 µM | Cc1cccc(C)c1-c1cc2nc(n1)NS(=O)(=O)c1cccc(c1)C(=O)N1CCCN(CCC3(C(F)(F)F)CC3)CC(C1)O2 (stereo not drawn) [Compound 358] | 
 | ++ (++ is 30-60%) | 1 to 3 µM | Cc1cccc(C)c1-c1cc2nc(n1)NS(=O)(=O)c1cccc(c1)C(=O)N1CCCN(C(=O)OC(C)(C)C)CC(C1)O2 (stereo not drawn) [Compound 359] | 
 | ++ (++ is 30-60%) | < 1 µM | Cc1cccc(C)c1-c1cc2nc(n1)NS(=O)(=O)c1cccc(c1)C(=O)N1CC(CC(C)(C)C1)O2 (stereo not drawn) [Compound 362] | 
3 to 30 µM |  |  | Cc1cccc(C)c1-c1cc2nc(n1)NS(=O)(=O)c1cccc(c1)C(=O)N1C[C@H]3C[C@@H]1[C@@H](C3)O2 [Compound 363] | +++ (+++ is >60%)
3 to 30 µM |  |  | Cc1cccc(C)c1-c1cc2nc(n1)NS(=O)(=O)c1cccc(c1)C(=O)N1CC3CC(O2)C1C3 (stereo not drawn) [Compound 365] | ++ (++ is 30-60%)
3 to 30 µM |  |  | Cc1cccc(C)c1-c1cc2nc(n1)NS(=O)(=O)c1cccc(c1)C(=O)N1CCOC[C@@H]1CO2 [Compound 366] | ++ (++ is 30-60%)
3 to 30 µM |  |  | Cc1cccc(C)c1-c1cc2nc(n1)NS(=O)(=O)c1cccc(c1)C(=O)N1CCC[C@@H]1CO2 [Compound 367] | +++ (+++ is >60%)
1 to 3 µM |  |  | Cc1cccc(C)c1-c1cc2nc(n1)NS(=O)(=O)c1cccc(c1)C(=O)N1CC(C)(C)CC1CO2 (stereo not drawn) [Compound 368] | ++ (++ is 30-60%)

From US20240018161A1, “MODULATORS OF CYSTIC FIBROSIS TRANSMEMBRANE CONDUCTANCE REGULATOR” (VERTEX PHARMACEUTICALS INCORPORATED, priority 2020, published 2024)
